Measurements from patent US8476265B2, “Compounds-801” (AstraZeneca AB, priority 2010, dated 2013).
pIC50: −log10 of the molar value.

Legend:
[1] = molecular target: T1, human muscarinic acetylcholine M3 receptor (Homo sapiens, UniProt P20309); experiment: Muscarinic 3 receptor binding assay ([3H]NMS competition, SPA), single concentration 1 μM; conditions: 1 μM compound; % inhibition specific [3H]-NMS binding
T1 construct: expressed in transfected cells; host or cells: CHO-K1 (Chinese Hamster Ovary) cell membranes
T1 sequence (P20309 whole entry): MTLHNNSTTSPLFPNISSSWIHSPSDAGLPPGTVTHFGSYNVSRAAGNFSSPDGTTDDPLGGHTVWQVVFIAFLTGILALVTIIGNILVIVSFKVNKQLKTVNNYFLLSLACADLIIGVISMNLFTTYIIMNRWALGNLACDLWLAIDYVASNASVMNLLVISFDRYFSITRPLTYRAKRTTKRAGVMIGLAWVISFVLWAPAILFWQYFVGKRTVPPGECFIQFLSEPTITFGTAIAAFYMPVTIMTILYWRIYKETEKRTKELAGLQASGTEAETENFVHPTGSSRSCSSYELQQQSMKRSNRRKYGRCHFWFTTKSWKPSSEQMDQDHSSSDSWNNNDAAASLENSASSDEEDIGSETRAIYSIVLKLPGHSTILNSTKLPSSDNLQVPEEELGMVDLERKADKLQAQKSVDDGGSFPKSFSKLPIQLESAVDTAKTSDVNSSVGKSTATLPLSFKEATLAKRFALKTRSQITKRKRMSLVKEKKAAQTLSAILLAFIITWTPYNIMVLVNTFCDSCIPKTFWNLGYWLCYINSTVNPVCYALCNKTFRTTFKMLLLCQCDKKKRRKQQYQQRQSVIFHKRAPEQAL
In short: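 CHO-K1 membranes expressing human M3 on SPA beads, competition with 0.1 nM [3H]NMS (quarter Kd) in 20 mM HEPES pH 7.4, 5 mM MgCl2, 0.1% BSA, 1% DMSO; compound at 1 μM. 16 h at room temperature. Value is % inhibition of specific binding, non-specific defined with 1 μM atropine.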

[2] = molecular target: T1, human muscarinic acetylcholine M3 receptor; experiment: Muscarinic 3 receptor binding assay ([3H]NMS competition, SPA), pIC50; conditions: [3H]NMS 0.1 nM, CHO-K1 cell membranes expressing human M3 receptor
In short: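 SPA beads precoated with human M3-expressing CHO-K1 membranes were incubated 16 h at room temperature with serially diluted compound and 0.1 nM [3H]NMS (pH 7.4 HEPES buffer, MgCl2, BSA, 1% DMSO). Atropine (1 μM) defined non-specific binding; pIC50 is the 50% reduction in specific binding.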

Adrenergic β2 [3] = molecular target: T2, Adrenergic β2 (Homo sapiens, UniProt P07550); experiment: Adrenergic β2 mediated cAMP production in H292 cells (AlphaScreen), concentration response; assay type: cell-based; conditions: for EC50: 60 min, 300 μM rolipram, read-out: β2 pEC50 (converted); for β2 Intrinsic Activity: fraction relative to the maximum activity determined for formoterol
T2 construct: Adherent H292 cells are removed from tissue culture flasks by treatment with Accutase™ cell detachment solution; endogenous in cells; host or cells: H292 cells
T2 sequence (P07550 whole entry): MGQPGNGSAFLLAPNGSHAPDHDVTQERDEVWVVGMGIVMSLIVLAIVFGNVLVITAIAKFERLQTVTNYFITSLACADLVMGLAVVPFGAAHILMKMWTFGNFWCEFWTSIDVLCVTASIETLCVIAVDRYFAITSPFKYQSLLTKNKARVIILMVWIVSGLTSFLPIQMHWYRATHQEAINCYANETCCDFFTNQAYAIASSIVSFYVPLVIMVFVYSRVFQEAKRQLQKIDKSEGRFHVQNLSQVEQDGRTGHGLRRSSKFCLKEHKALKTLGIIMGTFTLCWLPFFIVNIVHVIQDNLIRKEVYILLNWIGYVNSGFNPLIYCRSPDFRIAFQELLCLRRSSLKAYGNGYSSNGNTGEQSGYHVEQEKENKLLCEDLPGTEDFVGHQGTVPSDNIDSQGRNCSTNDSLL
In short: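 Intracellular cAMP in lysates read by AlphaScreen, calibrated with cAMP standards; curves fitted for pEC50, with intrinsic activity as a fraction of formoterol's maximum. Agonist exposure 60 min at room temperature after 10 min rolipram (300 μM final), 1% DMSO, HEPES-buffered HBSS pH 7.4.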

Adrenergic β2 [4] = molecular target: T2, Adrenergic β2; experiment: Adrenergic β2 mediated cAMP production in H292 cells, single concentration 1 μM; assay type: cell-based; conditions: NCI-H292, 1 μM compound, cAMP as percentage of the maximum response generated by 1E-07M formoterol, read-out: β2 % effect @1 uM
In short: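 H292 cells pretreated with rolipram (300 μM final) 10 min, then compound at 1 μM final, 1% DMSO, 60 min at room temperature in HBSS/10 mM HEPES pH 7.4/5 mM glucose. Lysate cAMP quantified by AlphaScreen against a standard curve, as % of maximal response to 1E-07M formoterol.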

Row | Compound | inhibition at 1 µM [1] | pIC50 [2] | EC50 (Adrenergic β2 [3]) | β2 Intrinsic Activity (Adrenergic β2 [3]) | percent of formoterol maximum response at 1 µM (Adrenergic β2 [4])
1 | O=C1COc2c(CCNCCN(C(=O)CCOCCc3cccc(CN4CCC5(CC4)CN(C(=O)Cc4ccc6c(c4)OCO6)CCO5)c3)C3CCCCC3)ccc(O)c2N1 [Example 140, 3-(3-((4-(2-(Benzo[d][1,3]dioxol-5-yl)acetyl)-1-oxa-4,9-diazaspiro[5.5]undecan-9-yl)methyl)phenethoxy)-N-cyclohexyl-N-(2-(2-(5-hydroxy-3-oxo-3,4-dihydro-2H-benzo[b][1,4]oxazin-8-yl)ethylamino)ethyl)propanamide] | 100% | 9.00 | 200 nM | 1.0 | 100%
2 | CCCCc1nc(C(=O)N2CCOC3(CCN(Cc4cccc(CCOCCC(=O)N(CCNCCc5ccc(O)c6c5OCC(=O)N6)C5CCCCC5)c4)CC3)C2)cs1 [Example 175, 3-(3-((4-(2-Butylthiazole-4-carbonyl)-1-oxa-4,9-diazaspiro[5.5]undecan-9-yl)methyl)phenethoxy)-N-cyclohexyl-N-(2-(2-(5-hydroxy-3-oxo-3,4-dihydro-2H-benzo[b][1,4]oxazin-8-yl)ethylamino)ethyl)propanamide] | 100% | 9.50 | 63.1 nM | 1.0 | 86%
3 | O=C1COc2c(CCNCCN(C(=O)CCOCCc3cccc(CN4CCC5(CC4)CN(C(=O)c4ccc6c(c4)OCO6)CCO5)c3)C3CCCCC3)ccc(O)c2N1 [Example 157, 3-(3-((4-(Benzo[d][1,3]dioxole-5-carbonyl)-1-oxa-4,9-diazaspiro[5.5]undecan-9-yl)methyl)phenethoxy)-N-cyclohexyl-N-(2-(2-(5-hydroxy-3-oxo-3,4-dihydro-2H-benzo[b][1,4]oxazin-8-yl)ethylamino)ethyl)propanamide] | 101% | 8.80 | 63.1 nM | 0.8 | 97%
